Source: patent US20260356856A1, “KRAS G12S AND G12C INHIBITORS” (MIRATI THERAPEUTICS, INC., priority 2023, published 2026)

Key:
[1] = target: T1, KRas-mediated phosphorylation of ERK in MKN1 cells (Homo sapiens, UniProt P01116); assay: Inhibition of KRas-mediated phosphorylation of ERK (HTRF), MKN1 cells; assay type: cell-based; details: MKN1 cells (KRas WT); HTRF pERK; 3 h incubation
T1 construct: pERK HTRF read-out
Experimental: Inhibition of KRas Phosphorylation of ERK (HTRF) by Exemplary Compounds of Formula (Ia) or (Ib)
Cisbio HTRF Advanced pERK Assay Catalog #64AERPEH • Cells: MKN1, PSN1 • Procedure: • 1. Day 1: Seed 6,000 cells/well −25 μl/well in 384-well white solid bottom plate; RPM1_10% FBS. Incubate overnight at 37 °C/5% CO2. • 2.

KRas G12S = target: T2, KRas G12S (Homo sapiens, UniProt P01116, G12S); assay: KRas binding assay, TR-FRET displacement of Cy5 labelled tracer; details: 60-minute incubation at room temperature, 1% DMSO, pH 7.5
T2 construct: Biotinylated KRas (corresponding to amino acids 1-169, produced at Accelegan Inc.); biotin (biotinylated); purchased Accelegan Inc
T2 sequence (P01116 1-169 isoform P01116-2 G12S): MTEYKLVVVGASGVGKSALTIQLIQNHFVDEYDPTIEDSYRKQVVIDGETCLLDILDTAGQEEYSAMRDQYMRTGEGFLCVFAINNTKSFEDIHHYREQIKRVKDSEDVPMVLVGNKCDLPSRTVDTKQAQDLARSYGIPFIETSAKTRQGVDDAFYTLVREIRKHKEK
Procedure, shortened: (§1)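 Assay buffer was HEPES (50 mM, pH 7.5) with MgCl2 (5 mM), DTT (1 mM) and Tween-20 (0.005%). Biotinylated KRas spanning residues 1-169 met tracer, terbium streptavidin and compound (1% DMSO, final) for 60 minutes at ambient temperature before reading. POC values were fitted for IC50.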

KRas WT = target: T3, KRas WT (Homo sapiens, UniProt P01116); assay: as above; details: 60-minute incubation at room temperature, 1% DMSO, pH 7.5
T3 construct: Biotinylated KRas (corresponding to amino acids 1-169, produced at Accelegan Inc.); biotin (biotinylated); purchased Accelegan Inc
T3 sequence (P01116 1-169 isoform P01116-2): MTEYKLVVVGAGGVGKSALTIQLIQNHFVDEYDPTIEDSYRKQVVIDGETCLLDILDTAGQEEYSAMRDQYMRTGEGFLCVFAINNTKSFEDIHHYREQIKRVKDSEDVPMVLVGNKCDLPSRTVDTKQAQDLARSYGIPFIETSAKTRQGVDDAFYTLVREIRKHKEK
Procedure, shortened: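 Displacement measured on KRas residues 1-169 (biotinylated, terbium-streptavidin labelled); 1 h, RT; 1% DMSO final; HEPES pH 7.5 / MgCl2 / Tween-20 / DTT. IC50: 4-parameter fit.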

KRas G12C = target: T4, KRas G12C (Homo sapiens, UniProt P01116, G12C); assay: as above; details: 60-minute incubation at room temperature, 1% DMSO, pH 7.5
T4 construct: Biotinylated KRas (corresponding to amino acids 1-169, produced at Accelegan Inc.); biotin (biotinylated); purchased Accelegan Inc
T4 sequence (P01116 1-169 isoform P01116-2 G12C): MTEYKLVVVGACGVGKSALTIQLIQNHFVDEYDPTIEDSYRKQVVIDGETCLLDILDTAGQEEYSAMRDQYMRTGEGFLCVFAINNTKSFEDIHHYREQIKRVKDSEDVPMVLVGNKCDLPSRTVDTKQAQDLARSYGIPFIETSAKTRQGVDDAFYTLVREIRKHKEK
Procedure, shortened: as §1

[2] = target: T5, KRas-mediated phosphorylation of ERK in A549 cells (Homo sapiens, UniProt P01116, G12S); assay: Inhibition of KRas-mediated phosphorylation of ERK (HTRF), A549 cells; assay type: cell-based; details: HTRF pERK, 3 h incubation
T5 construct: pERK HTRF read-out
T5 sequence (P01116 1-188 isoform P01116-2 G12S): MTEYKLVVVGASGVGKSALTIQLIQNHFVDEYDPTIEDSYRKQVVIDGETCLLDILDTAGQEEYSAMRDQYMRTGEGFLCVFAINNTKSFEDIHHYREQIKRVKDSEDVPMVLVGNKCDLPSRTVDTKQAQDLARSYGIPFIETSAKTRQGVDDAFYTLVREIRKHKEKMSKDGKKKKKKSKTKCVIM

T1 sequence (P01116 1-188 isoform P01116-2): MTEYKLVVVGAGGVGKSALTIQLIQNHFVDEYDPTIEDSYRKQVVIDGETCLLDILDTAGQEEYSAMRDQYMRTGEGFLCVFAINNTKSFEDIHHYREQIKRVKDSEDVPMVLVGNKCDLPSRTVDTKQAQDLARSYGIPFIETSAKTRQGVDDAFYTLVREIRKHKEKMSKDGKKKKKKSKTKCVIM

| SMILES | IC50 [1] | IC50 (KRas G12S) | IC50 (KRas WT) | IC50 (KRas G12C) | IC50 [2] |
| --- | --- | --- | --- | --- | --- |
| CCc1c(F)ccc2cc(O)cc(-c3ncc4c(N5CCC(OC)(C(=O)n6ccc(C)n6)CC5)nc(OC[C@@]56CCCN5C[C@H](F)C6)nc4c3F)c12 [Example 88, (1-(7-(8-ethyl-7-fluoro-3-hydroxynaphthalen-1-yl)-8-fluoro-2-(((2R,7aS)-2-fluorotetrahydro-1H-pyrrolizin-7a(5H)-yl)methoxy)pyrido[4,3-d]pyrimidin-4-yl)-4-methoxypiperidin-4-yl)(3-methyl-1H-pyrazol-1-yl)methanone] | 8070 nM | 1060 nM | 1760 nM | 116 nM | 589 nM |
| CCc1c(F)ccc2cc(O)cc(-c3ncc4c(N5CCC(COC)(C(=O)n6ccc(C)n6)CC5)nc(OC[C@@]56CCCN5C[C@H](F)C6)nc4c3F)c12 [Example 89, (1-(7-(8-ethyl-7-fluoro-3-hydroxynaphthalen-1-yl)-8-fluoro-2-(((2R,7aS)-2-fluorotetrahydro-1H-pyrrolizin-7a(5H)-yl)methoxy)pyrido[4,3-d]pyrimidin-4-yl)-4-(methoxymethyl)piperidin-4-yl)(3-methyl-1H-pyrazol-1-yl)methanone] | > 10000 nM | 6630 nM | 8490 nM | 2470 nM | > 10000 nM |
| CCc1c(F)ccc2cc(O)cc(-c3ncc4c(N5CC6CC5CC6C(=O)n5ccc(C)n5)nc(OC[C@@]56CCCN5C[C@H](F)C6)nc4c3F)c12 (stereo partly drawn) [Example 90, (2-(7-(8-ethyl-7-fluoro-3-hydroxynaphthalen-1-yl)-8-fluoro-2-(((2R,7aS)-2-fluorotetrahydro-1H-pyrrolizin-7a(5H)-yl)methoxy)pyrido[4,3-d]pyrimidin-4-yl)-2-azabicyclo[2.2.1]heptan-5-yl)(3-methyl-1H-pyrazol-1-yl)methanone] | 9190 nM | 286 nM | 233 nM | 260 nM | > 10000 nM |
| CCc1c(F)ccc2cc(O)cc(-c3ncc4c(N5CCC6CC6(C(=O)n6ccc(C)n6)CC5)nc(OC[C@@]56CCCN5C[C@H](F)C6)nc4c3F)c12 (stereo partly drawn) [Example 91, (4-(7-(8-ethyl-7-fluoro-3-hydroxynaphthalen-1-yl)-8-fluoro-2-(((2R,7aS)-2-fluorotetrahydro-1H-pyrrolizin-7a(5H)-yl)methoxy)pyrido[4,3-d]pyrimidin-4-yl)-4-azabicyclo[5.1.0]octan-1-yl)(3-methyl-1H-pyrazol-1-yl)methanone] | 853 nM | 62 nM | 317 nM | 141 nM | 210 nM |
| CCc1c(F)ccc2cc(O)cc(-c3ncc4c(NCC56CC(C(=O)n7ccc(C)n7)(C5)C6)nc(OC[C@@]56CCCN5C[C@H](F)C6)nc4c3F)c12 [Example 92, (3-(((7-(8-ethyl-7-fluoro-3-hydroxynaphthalen-1-yl)-8-fluoro-2-(((2R,7aS)-2-fluorotetrahydro-1H-pyrrolizin-7a(5H)-yl)methoxy)pyrido[4,3-d]pyrimidin-4-yl)amino)methyl)bicyclo[1.1.1]pentan-1-yl)(3-methyl-1H-pyrazol-1-yl)methanone] | > 10000 nM | 17 nM | 59 nM | 3 nM | 1380 nM |
| CCc1c(F)ccc2cc(O)cc(-c3ncc4c(NCC5CC(C(=O)n6ccc(C)n6)C5)nc(OC[C@@]56CCCN5C[C@H](F)C6)nc4c3F)c12 (stereo partly drawn) [Example 93, (3-(((7-(8-ethyl-7-fluoro-3-hydroxynaphthalen-1-yl)-8-fluoro-2-(((2R,7aS)-2-fluorotetrahydro-1H-pyrrolizin-7a(5H)-yl)methoxy)pyrido[4,3-d]pyrimidin-4-yl)amino)methyl)cyclobutyl)(3-methyl-1H-pyrazol-1-yl)methanone] | 325 nM | 3 nM | 13 nM | 4 nM | 26 nM |
| CCc1c(F)ccc2cc(O)cc(-c3ncc4c(N5CCC(C)(C(=O)n6ccc(C)n6)C5)nc(OC[C@@]56CCCN5C[C@H](F)C6)nc4c3F)c12 (stereo partly drawn) [Example 94, (1-(7-(8-ethyl-7-fluoro-3-hydroxynaphthalen-1-yl)-8-fluoro-2-(((2R,7aS)-2-fluorotetrahydro-1H-pyrrolizin-7a(5H)-yl)methoxy)pyrido[4,3-d]pyrimidin-4-yl)-3-methylpyrrolidin-3-yl)(3-methyl-1H-pyrazol-1-yl)methanone] | 6200 nM | 232 nM | 306 nM | 15 nM | 1070 nM |
| CCc1c(F)ccc2cc(O)cc(-c3ncc4c(N5CCC(COC)(C(=O)n6ccc(C)n6)C5)nc(OC[C@@]56CCCN5C[C@H](F)C6)nc4c3F)c12 (stereo partly drawn) [Example 95, (1-(7-(8-ethyl-7-fluoro-3-hydroxynaphthalen-1-yl)-8-fluoro-2-(((2R,7aS)-2-fluorotetrahydro-1H-pyrrolizin-7a(5H)-yl)methoxy)pyrido[4,3-d]pyrimidin-4-yl)-3-(methoxymethyl)pyrrolidin-3-yl)(3-methyl-1H-pyrazol-1-yl)methanone] | > 10000 nM | 1600 nM | 1080 nM | 257 nM | 4220 nM |
| CCc1c(F)ccc2cc(O)cc(-c3ncc4c(N5C[C@H](C(=O)n6ccc(C)n6)[C@@H](C)C5)nc(OC[C@@]56CCCN5C[C@H](F)C6)nc4c3F)c12 [Example 96, ((3R,4R)-1-(7-(8-ethyl-7-fluoro-3-hydroxynaphthalen-1-yl)-8-fluoro-2-(((2R,7aS)-2-fluorotetrahydro-1H-pyrrolizin-7a(5H)-yl)methoxy)pyrido[4,3-d]pyrimidin-4-yl)-4-methylpyrrolidin-3-yl)(3-methyl-1H-pyrazol-1-yl)methanone] | > 10000 nM | 339 nM | 162 nM | 375 nM | > 10000 nM |
| CCc1c(F)ccc2cc(O)cc(-c3ncc4c(N5CCC(C(=O)n6ccc(C)n6)C6CC65)nc(OC[C@@]56CCCN5C[C@H](F)C6)nc4c3F)c12 (stereo partly drawn) [Example 97, (2-(7-(8-ethyl-7-fluoro-3-hydroxynaphthalen-1-yl)-8-fluoro-2-(((2R,7aS)-2-fluorotetrahydro-1H-pyrrolizin-7a(5H)-yl)methoxy)pyrido[4,3-d]pyrimidin-4-yl)-2-azabicyclo[4.1.0]heptan-5-yl)(3-methyl-1H-pyrazol-1-yl)methanone] | 2850 nM | 201 nM | 125 nM | 395 nM | 2120 nM |
| CCc1c(F)ccc2cc(O)cc(-c3ncc4c(N5CC6CC(C(=O)n7ccc(C)n7)C6C5)nc(OC[C@@]56CCCN5C[C@H](F)C6)nc4c3F)c12 (stereo partly drawn) [Example 98, (3-(7-(8-ethyl-7-fluoro-3-hydroxynaphthalen-1-yl)-8-fluoro-2-(((2R,7aS)-2-fluorotetrahydro-1H-pyrrolizin-7a(5H)-yl)methoxy)pyrido[4,3-d]pyrimidin-4-yl)-3-azabicyclo[3.2.0]heptan-6-yl)(3-methyl-1H-pyrazol-1-yl)methanone] | 2490 nM | 20 nM | 178 nM | 73 nM | 61 nM |
| CCc1c(F)ccc2cc(O)cc(-c3ncc4c(N5C[C@H]6C[C@@H](C5)[C@H](C(=O)n5ccc(C)n5)C6)nc(OC[C@@]56CCCN5C[C@H](F)C6)nc4c3F)c12 [Example 100, ((1S,5R,6R)-3-(7-(8-ethyl-7-fluoro-3-hydroxynaphthalen-1-yl)-8-fluoro-2-(((2R,7aS)-2-fluorotetrahydro-1H-pyrrolizin-7a(5H)-yl)methoxy)pyrido[4,3-d]pyrimidin-4-yl)-3-azabicyclo[3.2.1]octan-6-yl)(3-methyl-1H-pyrazol-1-yl)methanone] | > 10000 nM | 4720 nM | 7690 nM | 4840 nM | > 10000 nM |
| CCc1c(F)ccc2cc(O)cc(-c3ncc4c(N5CC(C(=O)n6ccc(C)n6)C(C)(C)C5)nc(OC[C@@]56CCCN5C[C@H](F)C6)nc4c3F)c12 (stereo partly drawn) [Example 101, (1-(7-(8-ethyl-7-fluoro-3-hydroxynaphthalen-1-yl)-8-fluoro-2-(((2R,7aS)-2-fluorotetrahydro-1H-pyrrolizin-7a(5H)-yl)methoxy)pyrido[4,3-d]pyrimidin-4-yl)-4,4-dimethylpyrrolidin-3-yl)(3-methyl-1H-pyrazol-1-yl)methanone] | 5550 nM | 934 nM | 716 nM | 784 nM | > 10000 nM |
| C=CC1(C(=O)n2ccc(C)n2)CCN(c2nc(OC[C@@]34CCCN3C[C@H](F)C4)nc3c(F)c(-c4cc(O)cc5ccc(F)c(CC)c45)ncc23)CC1 [Example 102, (1-(7-(8-ethyl-7-fluoro-3-hydroxynaphthalen-1-yl)-8-fluoro-2-(((2R,7aS)-2-fluorotetrahydro-1H-pyrrolizin-7a(5H)-yl)methoxy)pyrido[4,3-d]pyrimidin-4-yl)-4-vinylpiperidin-4-yl)(3-methyl-1H-pyrazol-1-yl)methanone] | > 10000 nM | 2140 nM | 5920 nM | 252 nM | 1930 nM |
